Paper PMC10120574 (Biochemistry, 2022)

How the values were obtained:
437 = experiment: UV ketonization assay, decay of enol at […] nm; format: biochemical, Calothrix sp. PCC 6303; details: read-out: 437 / Km; 10 mM Na2HPO4, pH 8.3, 22 °C; 5-75 μM substrate
Nterm1 = Nterm1 (UniProt position 2, ----MPLLKFD); experiment: NMR; details: not stated (presumably free enzyme); cited from earlier work

| Molecule | Km 437 [µM] | pKa (Nterm1) |
| --- | --- | --- |
| O=C(O)C=CC=C(O)C(=O)O [2-HM, 2-Hydroxymuconate] | 34 ± 12 |  |
| Malonate semialdehyde decarboxylase (Pp MSAD) (Pseudomonas pavonaceae 170) |  | ~9.2 |
